Experimental data as given in patent US12049444B2, “Monomethyl fumarate precursor drug compounds and pharmaceutical compositions thereof” (AGATHONBIO CO., LTD., priority 2019, dated 2024).
Counter-ions that a name gives are not always drawn.

Columns and labels:
[1] = cited from earlier work
[2] = rat, in vivo, po, 0.139 mmol/kg
Procedure: The test compounds and control compounds were each prepared in the same way and administered at a dose of 0.139 mmol/kg to rats, and after blood was collected at a predetermined time, plasma was separated. Analysis of the drug was performed using HPLC (XBridge column C18, Waters, mobile phase 0.1% formic acid:acetonitrile (30:70, %/%)) and MS/MS (ESI positive, MRM). Each commercial standard solution was mixed with rat blank plasma at a ratio of 9:1 to prepare standard solutions and calibrate at concentrations of 5, 50, 100, 500, 100 and 5,000 ng/ml. In addition, the QC sample was prepared at 100, 750 and 2,500 ng/ml concentrations by mixing rat blank plasma and QC standard solution in a 9:1 ratio. […] And the concentration of the active ingredient in rat plasma, that is, monomethyl fumarate, was quantified by applying the previously verified assay. For pharmacokinetic parameters, WinNonlin 5.2 (Pharsight, USA) program was used, and AUC0-t, AUC0-∞, Cmax, Tmax, and t1/2 were calculated by noncompartment modeling (best fit). Pharmacokinetic parameter results were expressed as mean (Mean) and standard deviation (SD), and statistically processed using the SPSS program (Statistical Package for the Social Sciences, 10.0K, USA).

Row | SMILES | safety in phase 1 clinical trial [1] | AUC0-24 [2] [ng·h/mL]
1 | COC(=O)/C=C/C(=O)OCCN1C(=O)CCC1=O [ALKS8700, diroximel fumarate] | proven to be safe | –
2 | CCN(CC)C(=O)COC(=O)/C=C/C(=O)OC [Reference Example 1, 2-(diethylamino)-2-oxoethyl Methyl Fumarate] | proven to be safe | 8280
